# How the values were obtained:
# Assay in all cases: relative viability (nuclei count vs DMSO), 5 days (fraction); higher = more cells survive
# [1] = tested on: NCI-H647
# How it was run: (§1)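 Each reported value is a median over duplicate plates. It expresses relative viability: treated-well nuclei count divided by vehicle-well nuclei count. Lung cancer cell lines in 1536-well plates were dosed by pin tool a day after seeding, alone with one drug or with a fixed anchor-drug dose plus five library-drug doses (not always all listed) in √10 steps, and nuclei were counted after 5 days.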
# [2] = tested on: NCI-H2347
# How it was run: as §1
# [3] = tested on: NCI-H322M
# How it was run: as §1
# [4] = tested on: NCI-H2405
# How it was run: as §1
# [5] = tested on: NCI-H460
# How it was run: as §1
# [6] = tested on: RERF-LC-KJ
# How it was run: as §1
# [7] = tested on: H3255
# How it was run: as §1
# [8] = tested on: UMC-11
# How it was run: as §1
# [9] = tested on: NCI-H23
# How it was run: as §1
# [10] = tested on: NCI-H3122
# How it was run: as §1
# [11] = tested on: LXF-289
# How it was run: as §1
# [12] = tested on: PC-14
# How it was run: as §1
# [13] = tested on: EKVX
# How it was run: as §1
# [14] = tested on: NCI-H2085
# How it was run: as §1
# [15] = tested on: SK-LU-1
# How it was run: as §1
# [16] = tested on: NCI-H1734
# How it was run: as §1
# [17] = tested on: NCI-H1651
# How it was run: as §1
# [18] = tested on: NCI-H358
# How it was run: as §1
# [19] = tested on: COR-L23
# How it was run: as §1
# [20] = tested on: NCI-H1993
# How it was run: as §1
# [21] = tested on: A-427
# How it was run: as §1
# [22] = tested on: LK-2
# How it was run: as §1
# [23] = tested on: NCI-H1437
# How it was run: as §1
# [24] = tested on: SW 900
# How it was run: as §1
# [25] = tested on: NCI-H2087
# How it was run: as §1
smiles,measurement,setting,value
Nc1cccc2c1CN(C1CCC(=O)NC1=O)C2=O (stereo not given) [Lenalidomide] + O=C(CCCCCCC(=O)Nc1ccccc1)NO [Vorinostat] (partner 1 µM),relative viability,[1]; first compound 0.253 µM,0.415
same,relative viability,[1]; first compound 0.8 µM,0.68
same,relative viability,[1]; first compound 2.53 µM,0.525
same,relative viability,[1]; first compound 8 µM,0.653
same,relative viability,[2]; first compound 0.253 µM,0.701
same,relative viability,[2]; first compound 0.8 µM,0.611
same,relative viability,[2]; first compound 2.53 µM,0.722
same,relative viability,[2]; first compound 8 µM,0.448
same,relative viability,[3]; first compound 0.253 µM,0.934
same,relative viability,[3]; first compound 0.8 µM,0.907
same,relative viability,[3]; first compound 2.53 µM,0.962
same,relative viability,[3]; first compound 8 µM,0.986
same,relative viability,[4]; first compound 0.253 µM,1.12
same,relative viability,[4]; first compound 0.8 µM,0.934
same,relative viability,[4]; first compound 2.53 µM,1.09
same,relative viability,[4]; first compound 8 µM,0.943
same,relative viability,[5]; first compound 0.253 µM,0.815
same,relative viability,[5]; first compound 0.8 µM,0.715
same,relative viability,[5]; first compound 2.53 µM,1.03
same,relative viability,[5]; first compound 8 µM,0.783
same,relative viability,[6]; first compound 0.253 µM,0.574
same,relative viability,[6]; first compound 0.8 µM,0.605
same,relative viability,[6]; first compound 2.53 µM,0.71
same,relative viability,[6]; first compound 8 µM,0.686
same,relative viability,[7]; first compound 0.253 µM,0.716
same,relative viability,[7]; first compound 0.8 µM,0.515
same,relative viability,[7]; first compound 2.53 µM,0.823
same,relative viability,[7]; first compound 8 µM,0.862
same,relative viability,[8]; first compound 0.253 µM,0.441
same,relative viability,[8]; first compound 0.8 µM,0.378
same,relative viability,[8]; first compound 2.53 µM,0.428
same,relative viability,[8]; first compound 8 µM,0.381
same,relative viability,[9]; first compound 0.253 µM,0.511
same,relative viability,[9]; first compound 2.53 µM,0.747
same,relative viability,[9]; first compound 8 µM,0.407
same,relative viability,[10]; first compound 0.253 µM,0.723
same,relative viability,[10]; first compound 0.8 µM,1.05
same,relative viability,[10]; first compound 2.53 µM,0.95
same,relative viability,[10]; first compound 8 µM,0.966
same,relative viability,[11]; first compound 0.253 µM,0.812
same,relative viability,[11]; first compound 0.8 µM,0.625
same,relative viability,[11]; first compound 2.53 µM,0.798
same,relative viability,[11]; first compound 8 µM,0.838
same,relative viability,[12]; first compound 0.253 µM,0.745
same,relative viability,[12]; first compound 0.8 µM,0.713
same,relative viability,[12]; first compound 2.53 µM,0.826
same,relative viability,[12]; first compound 8 µM,0.922
same,relative viability,[13]; first compound 0.253 µM,0.765
same,relative viability,[13]; first compound 0.8 µM,0.668
same,relative viability,[13]; first compound 2.53 µM,0.954
same,relative viability,[13]; first compound 8 µM,0.636
same,relative viability,[14]; first compound 0.253 µM,0.826
same,relative viability,[14]; first compound 0.8 µM,0.691
same,relative viability,[14]; first compound 2.53 µM,0.799
same,relative viability,[14]; first compound 8 µM,0.624
same,relative viability,[15]; first compound 0.253 µM,0.763
same,relative viability,[15]; first compound 0.8 µM,0.877
same,relative viability,[15]; first compound 2.53 µM,0.909
same,relative viability,[15]; first compound 8 µM,0.759
same,relative viability,[16]; first compound 0.253 µM,0.855
same,relative viability,[16]; first compound 0.8 µM,0.759
same,relative viability,[16]; first compound 2.53 µM,0.871
same,relative viability,[16]; first compound 8 µM,0.735
same,relative viability,[17]; first compound 0.253 µM,0.624
same,relative viability,[17]; first compound 0.8 µM,0.471
same,relative viability,[17]; first compound 2.53 µM,0.589
same,relative viability,[17]; first compound 8 µM,0.579
same,relative viability,[18]; first compound 0.8 µM,0.748
same,relative viability,[18]; first compound 2.53 µM,0.745
same,relative viability,[18]; first compound 8 µM,0.72
same,relative viability,[19]; first compound 0.253 µM,0.542
same,relative viability,[19]; first compound 0.8 µM,0.408
same,relative viability,[19]; first compound 2.53 µM,0.498
same,relative viability,[19]; first compound 8 µM,0.509
same,relative viability,[20]; first compound 0.253 µM,0.872
same,relative viability,[20]; first compound 0.8 µM,0.615
same,relative viability,[20]; first compound 2.53 µM,0.962
same,relative viability,[20]; first compound 8 µM,0.383
same,relative viability,[21]; first compound 0.253 µM,0.871
same,relative viability,[21]; first compound 0.8 µM,0.898
same,relative viability,[21]; first compound 2.53 µM,0.878
same,relative viability,[21]; first compound 8 µM,0.873
same,relative viability,[22]; first compound 0.253 µM,0.339
same,relative viability,[22]; first compound 0.8 µM,0.252
same,relative viability,[22]; first compound 2.53 µM,0.353
same,relative viability,[22]; first compound 8 µM,0.189
same,relative viability,[23]; first compound 0.253 µM,0.825
same,relative viability,[23]; first compound 0.8 µM,0.85
same,relative viability,[23]; first compound 2.53 µM,0.934
same,relative viability,[23]; first compound 8 µM,0.843
same,relative viability,[24]; first compound 2.53 µM,0.679
same,relative viability,[24]; first compound 8 µM,0.429
same,relative viability,[25]; first compound 0.253 µM,0.809
same,relative viability,[25]; first compound 2.53 µM,0.84
same,relative viability,[25]; first compound 8 µM,0.56
Nc1cccc2c1CN(C1CCC(=O)NC1=O)C2=O (stereo not given) [Lenalidomide] + O=C(c1cc(Cc2n[nH]c(=O)c3ccccc23)ccc1F)N1CCN(C(=O)C2CC2)CC1 [Olaparib] (partner 8 µM),relative viability,[1]; first compound 0.253 µM,0.525
same,relative viability,[1]; first compound 0.8 µM,0.543
same,relative viability,[1]; first compound 2.53 µM,0.65
same,relative viability,[1]; first compound 8 µM,0.566
same,relative viability,[2]; first compound 0.253 µM,0.62
same,relative viability,[2]; first compound 0.8 µM,0.567
same,relative viability,[2]; first compound 2.53 µM,0.579
same,relative viability,[2]; first compound 8 µM,0.509
same,relative viability,[3]; first compound 0.253 µM,0.831
same,relative viability,[3]; first compound 0.8 µM,0.736
same,relative viability,[3]; first compound 2.53 µM,0.886
same,relative viability,[3]; first compound 8 µM,0.945
same,relative viability,[4]; first compound 0.253 µM,0.866
same,relative viability,[4]; first compound 0.8 µM,0.877
same,relative viability,[4]; first compound 2.53 µM,0.879
same,relative viability,[4]; first compound 8 µM,0.86
same,relative viability,[5]; first compound 0.253 µM,0.394
same,relative viability,[5]; first compound 0.8 µM,0.397
same,relative viability,[5]; first compound 2.53 µM,0.438
same,relative viability,[5]; first compound 8 µM,0.374
same,relative viability,[6]; first compound 0.253 µM,0.812
same,relative viability,[6]; first compound 0.8 µM,0.704
same,relative viability,[6]; first compound 2.53 µM,0.884
same,relative viability,[6]; first compound 8 µM,1.05
same,relative viability,[7]; first compound 0.253 µM,0.556
same,relative viability,[7]; first compound 0.8 µM,0.579
same,relative viability,[7]; first compound 2.53 µM,0.602
same,relative viability,[7]; first compound 8 µM,0.614
same,relative viability,[8]; first compound 0.253 µM,0.398
same,relative viability,[8]; first compound 0.8 µM,0.695
same,relative viability,[8]; first compound 2.53 µM,0.416
same,relative viability,[8]; first compound 8 µM,0.405
same,relative viability,[9]; first compound 0.253 µM,0.289
same,relative viability,[9]; first compound 2.53 µM,0.3
same,relative viability,[9]; first compound 8 µM,0.367
same,relative viability,[10]; first compound 0.253 µM,0.596
same,relative viability,[10]; first compound 0.8 µM,0.579
same,relative viability,[10]; first compound 2.53 µM,0.623
same,relative viability,[10]; first compound 8 µM,0.745
same,relative viability,[11]; first compound 0.253 µM,1.04
same,relative viability,[11]; first compound 0.8 µM,1.17
same,relative viability,[11]; first compound 2.53 µM,1.24
same,relative viability,[11]; first compound 8 µM,1.16
same,relative viability,[12]; first compound 0.253 µM,0.302
same,relative viability,[12]; first compound 0.8 µM,0.243
same,relative viability,[12]; first compound 2.53 µM,0.374
same,relative viability,[12]; first compound 8 µM,0.436
same,relative viability,[13]; first compound 0.253 µM,0.776
same,relative viability,[13]; first compound 0.8 µM,0.754
same,relative viability,[13]; first compound 2.53 µM,0.87
same,relative viability,[13]; first compound 8 µM,0.786
same,relative viability,[14]; first compound 0.253 µM,0.793
same,relative viability,[14]; first compound 0.8 µM,0.796
same,relative viability,[14]; first compound 2.53 µM,0.841
same,relative viability,[14]; first compound 8 µM,0.752
same,relative viability,[15]; first compound 0.253 µM,0.409
same,relative viability,[15]; first compound 0.8 µM,0.542
same,relative viability,[15]; first compound 2.53 µM,0.615
same,relative viability,[15]; first compound 8 µM,0.392
same,relative viability,[16]; first compound 0.253 µM,0.305
same,relative viability,[16]; first compound 0.8 µM,0.582
same,relative viability,[16]; first compound 2.53 µM,0.651
same,relative viability,[16]; first compound 8 µM,0.576
same,relative viability,[17]; first compound 0.253 µM,0.153
same,relative viability,[17]; first compound 0.8 µM,0.169
same,relative viability,[17]; first compound 2.53 µM,0.219
same,relative viability,[17]; first compound 8 µM,0.194
same,relative viability,[18]; first compound 0.8 µM,0.607
same,relative viability,[18]; first compound 2.53 µM,0.652
same,relative viability,[18]; first compound 8 µM,0.665
same,relative viability,[19]; first compound 0.253 µM,0.329
same,relative viability,[19]; first compound 0.8 µM,0.316
same,relative viability,[19]; first compound 2.53 µM,0.356
same,relative viability,[19]; first compound 8 µM,0.393
same,relative viability,[20]; first compound 0.253 µM,0.897
same,relative viability,[20]; first compound 0.8 µM,1.42
same,relative viability,[20]; first compound 2.53 µM,1.09
same,relative viability,[20]; first compound 8 µM,0.889
same,relative viability,[21]; first compound 0.253 µM,0.713
same,relative viability,[21]; first compound 0.8 µM,0.504
same,relative viability,[21]; first compound 2.53 µM,0.838
same,relative viability,[21]; first compound 8 µM,0.79
same,relative viability,[22]; first compound 0.253 µM,0.881
same,relative viability,[22]; first compound 0.8 µM,0.413
same,relative viability,[22]; first compound 2.53 µM,0.571
same,relative viability,[22]; first compound 8 µM,0.387
same,relative viability,[23]; first compound 0.253 µM,0.612
same,relative viability,[23]; first compound 0.8 µM,0.629
same,relative viability,[23]; first compound 2.53 µM,0.638
same,relative viability,[23]; first compound 8 µM,0.677
same,relative viability,[24]; first compound 2.53 µM,0.913
same,relative viability,[24]; first compound 8 µM,0.858
same,relative viability,[25]; first compound 0.253 µM,0.562
same,relative viability,[25]; first compound 2.53 µM,0.689
same,relative viability,[25]; first compound 8 µM,0.685
